# Measurements reported in BindingDB's records for doi:10.7270/Q2930S2V (Taibah University, 2017).
# Target: DNA-dependent protein kinase catalytic subunit (Homo sapiens, UniProt P78527)
# Assay: DNA-PK Enzyme Inhibitory Assay
# Method: The assays of DNA-PK were performed by Reaction Biology Corporation, One Great Valley Parkway, Suite 2 Malvern, PA 19355 USA. All Compounds were dissolved in DMSO (negative control solvent) and tested for their ability to inhibit human DNA-PK enzyme activity. All synthesized compounds were tested in a 10-dose IC50 profile with 4-fold serial dilutions starting at concentration 100 μM. The control compound, LY294002 was tested in a 10-dose IC50 profile with 3-fold serial dilutions starting at 10 μM concentration. Reactions were carried out using 20 μM peptide substrate [EPPLSQEAFADLWKK], 10 μg/ml DNA and 10 μM ATP using the HTRF assay format.
# DNA-dependent protein kinase catalytic subunit, sequence (P78527 whole entry): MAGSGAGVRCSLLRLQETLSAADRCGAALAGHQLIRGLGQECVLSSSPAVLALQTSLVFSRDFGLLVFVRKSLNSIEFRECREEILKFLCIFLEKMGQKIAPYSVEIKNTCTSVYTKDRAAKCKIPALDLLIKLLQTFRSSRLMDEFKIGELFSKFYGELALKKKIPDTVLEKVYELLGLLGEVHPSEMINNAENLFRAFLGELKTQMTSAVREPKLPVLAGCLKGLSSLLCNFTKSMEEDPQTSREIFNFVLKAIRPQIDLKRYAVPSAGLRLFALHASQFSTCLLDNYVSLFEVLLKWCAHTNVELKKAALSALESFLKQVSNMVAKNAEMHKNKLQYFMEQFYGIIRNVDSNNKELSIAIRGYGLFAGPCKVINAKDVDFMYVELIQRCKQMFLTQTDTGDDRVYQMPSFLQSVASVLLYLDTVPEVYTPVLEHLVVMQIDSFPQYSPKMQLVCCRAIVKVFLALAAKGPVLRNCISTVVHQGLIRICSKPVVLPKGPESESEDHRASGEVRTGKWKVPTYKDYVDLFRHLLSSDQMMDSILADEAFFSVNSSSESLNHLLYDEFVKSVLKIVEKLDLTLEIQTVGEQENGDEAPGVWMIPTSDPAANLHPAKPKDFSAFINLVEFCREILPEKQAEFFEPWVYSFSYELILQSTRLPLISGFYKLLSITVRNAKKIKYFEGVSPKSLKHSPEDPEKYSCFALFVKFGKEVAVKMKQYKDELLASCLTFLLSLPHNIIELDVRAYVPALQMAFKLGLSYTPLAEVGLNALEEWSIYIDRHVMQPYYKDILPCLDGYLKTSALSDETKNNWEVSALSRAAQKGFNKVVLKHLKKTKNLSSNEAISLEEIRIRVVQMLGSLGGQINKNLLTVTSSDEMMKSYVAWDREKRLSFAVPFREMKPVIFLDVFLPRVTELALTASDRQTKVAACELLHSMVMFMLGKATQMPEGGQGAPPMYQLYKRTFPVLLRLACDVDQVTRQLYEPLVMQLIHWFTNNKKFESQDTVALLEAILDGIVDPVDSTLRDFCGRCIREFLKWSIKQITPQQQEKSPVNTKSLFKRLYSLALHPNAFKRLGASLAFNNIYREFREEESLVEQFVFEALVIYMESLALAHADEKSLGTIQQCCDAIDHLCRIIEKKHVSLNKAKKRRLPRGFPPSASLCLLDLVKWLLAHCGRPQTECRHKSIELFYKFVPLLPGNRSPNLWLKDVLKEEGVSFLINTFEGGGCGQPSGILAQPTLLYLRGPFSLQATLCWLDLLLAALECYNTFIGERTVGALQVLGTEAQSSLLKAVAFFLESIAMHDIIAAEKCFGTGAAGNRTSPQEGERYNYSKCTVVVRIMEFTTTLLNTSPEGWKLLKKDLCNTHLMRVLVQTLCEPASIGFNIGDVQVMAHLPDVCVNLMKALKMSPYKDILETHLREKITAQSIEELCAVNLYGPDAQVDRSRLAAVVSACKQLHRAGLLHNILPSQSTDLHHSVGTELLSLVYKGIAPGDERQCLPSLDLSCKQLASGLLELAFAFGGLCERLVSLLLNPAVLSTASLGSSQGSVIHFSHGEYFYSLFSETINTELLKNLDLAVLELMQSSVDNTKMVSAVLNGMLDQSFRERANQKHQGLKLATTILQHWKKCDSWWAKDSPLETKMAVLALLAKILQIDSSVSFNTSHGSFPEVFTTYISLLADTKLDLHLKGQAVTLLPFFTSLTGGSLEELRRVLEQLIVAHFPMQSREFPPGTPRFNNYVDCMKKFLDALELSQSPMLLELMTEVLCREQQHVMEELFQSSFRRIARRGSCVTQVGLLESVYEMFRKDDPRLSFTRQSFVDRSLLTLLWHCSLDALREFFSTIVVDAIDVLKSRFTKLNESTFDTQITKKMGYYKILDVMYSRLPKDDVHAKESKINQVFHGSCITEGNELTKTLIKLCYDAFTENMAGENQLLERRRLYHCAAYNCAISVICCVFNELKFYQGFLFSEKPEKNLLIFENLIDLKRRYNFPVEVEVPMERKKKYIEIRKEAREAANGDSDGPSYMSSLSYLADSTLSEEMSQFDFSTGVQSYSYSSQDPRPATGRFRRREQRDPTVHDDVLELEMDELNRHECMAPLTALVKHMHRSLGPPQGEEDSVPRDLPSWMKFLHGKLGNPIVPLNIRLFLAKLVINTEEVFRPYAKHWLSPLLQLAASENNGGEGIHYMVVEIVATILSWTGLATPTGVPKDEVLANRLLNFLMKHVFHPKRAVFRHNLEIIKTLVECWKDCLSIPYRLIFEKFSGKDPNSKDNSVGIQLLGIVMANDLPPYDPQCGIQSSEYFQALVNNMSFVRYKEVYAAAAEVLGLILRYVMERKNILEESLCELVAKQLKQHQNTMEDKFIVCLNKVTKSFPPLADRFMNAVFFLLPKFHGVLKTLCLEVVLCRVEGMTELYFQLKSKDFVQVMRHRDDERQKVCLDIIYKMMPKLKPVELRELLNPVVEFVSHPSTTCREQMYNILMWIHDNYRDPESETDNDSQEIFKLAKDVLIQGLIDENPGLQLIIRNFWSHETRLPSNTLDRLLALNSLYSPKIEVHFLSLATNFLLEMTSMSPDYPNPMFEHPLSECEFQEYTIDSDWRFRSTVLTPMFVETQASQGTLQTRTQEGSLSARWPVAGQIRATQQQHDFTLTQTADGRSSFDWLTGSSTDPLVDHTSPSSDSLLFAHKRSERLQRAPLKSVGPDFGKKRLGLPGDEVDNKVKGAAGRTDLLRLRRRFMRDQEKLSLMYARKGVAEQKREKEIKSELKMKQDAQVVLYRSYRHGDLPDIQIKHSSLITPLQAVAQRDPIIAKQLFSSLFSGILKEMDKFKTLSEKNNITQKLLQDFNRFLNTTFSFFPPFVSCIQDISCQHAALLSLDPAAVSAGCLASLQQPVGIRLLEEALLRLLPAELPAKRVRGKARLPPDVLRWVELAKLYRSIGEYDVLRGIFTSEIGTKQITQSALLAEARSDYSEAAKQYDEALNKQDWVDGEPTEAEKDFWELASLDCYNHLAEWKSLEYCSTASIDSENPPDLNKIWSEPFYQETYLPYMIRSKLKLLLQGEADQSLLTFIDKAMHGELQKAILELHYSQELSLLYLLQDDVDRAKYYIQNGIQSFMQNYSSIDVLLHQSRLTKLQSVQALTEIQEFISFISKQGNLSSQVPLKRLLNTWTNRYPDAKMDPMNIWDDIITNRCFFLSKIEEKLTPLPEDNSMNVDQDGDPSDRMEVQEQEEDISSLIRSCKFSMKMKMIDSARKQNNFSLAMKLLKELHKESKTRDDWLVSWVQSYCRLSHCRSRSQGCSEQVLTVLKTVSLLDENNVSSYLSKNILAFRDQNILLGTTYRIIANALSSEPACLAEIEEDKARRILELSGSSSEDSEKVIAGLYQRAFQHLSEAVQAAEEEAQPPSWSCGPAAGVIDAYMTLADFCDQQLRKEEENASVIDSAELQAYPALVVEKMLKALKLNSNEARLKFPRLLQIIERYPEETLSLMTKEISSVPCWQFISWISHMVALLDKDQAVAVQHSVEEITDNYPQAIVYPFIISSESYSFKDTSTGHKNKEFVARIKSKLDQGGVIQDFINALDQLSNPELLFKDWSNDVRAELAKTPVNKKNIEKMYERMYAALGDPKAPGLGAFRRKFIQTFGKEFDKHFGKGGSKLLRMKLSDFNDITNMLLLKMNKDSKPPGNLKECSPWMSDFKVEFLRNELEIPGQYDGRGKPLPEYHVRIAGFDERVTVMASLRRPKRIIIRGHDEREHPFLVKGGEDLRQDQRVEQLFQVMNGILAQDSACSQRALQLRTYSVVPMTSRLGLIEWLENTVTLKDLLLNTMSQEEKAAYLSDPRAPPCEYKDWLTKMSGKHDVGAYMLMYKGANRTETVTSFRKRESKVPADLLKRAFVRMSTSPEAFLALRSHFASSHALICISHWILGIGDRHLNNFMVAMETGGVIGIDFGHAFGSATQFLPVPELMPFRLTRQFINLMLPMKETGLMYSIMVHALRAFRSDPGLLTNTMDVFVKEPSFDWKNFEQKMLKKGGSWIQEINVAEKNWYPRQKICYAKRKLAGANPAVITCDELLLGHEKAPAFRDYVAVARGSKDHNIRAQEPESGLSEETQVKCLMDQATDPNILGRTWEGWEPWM
row,Compound,IC50 [µM]
1,"COc1ccc(CNC(=O)COc2ccc3c(=O)nc(N4CCOCC4)oc3c2C)cc1 [N-(4-methoxybenzyl)-2-((8-methyl-2-morpholino-4-oxo-4Hbenzo[e][1,3]oxazin-7-yl)oxy)acetamide (9b)]",15
2,"Cc1c(OCC(=O)NCc2ccccc2)ccc2c(=O)nc(N3CCOCC3)oc12 [N-benzyl-2-((8-methyl-2-morpholino-4-oxo-4H-benzo[e][1,3]oxazin-7-yl)oxy)acetamide (9a)]",> 100
3,"Cc1c(OCC(=O)Nc2ccc(S(N)(=O)=O)cc2)ccc2c(=O)nc(N3CCOCC3)oc12 [2-((8-Methyl-2-morpholino-4-oxo-4H-benzo[e][1,3]oxazin-7-yl)oxy)-N-(4-sulfamoylphenyl)acetamide (7a)]",40
4,"Cc1c(OCC(=O)NCc2ccc(F)cc2)ccc2c(=O)nc(N3CCOCC3)oc12 [N-(4-fluorobenzyl)-2-((8-methyl-2-morpholino-4-oxo-4Hbenzo[e][1,3]oxazin-7-yl)oxy)acetamide (9e)]",4
5,"CC(=O)NS(=O)(=O)c1ccc(NC(=O)COc2ccc3c(=O)nc(N4CCOCC4)oc3c2C)cc1 [N-(4-(N-acetylsulfamoyl)phenyl)-2-((8-methyl-2-morpholino-4-oxo-4H-benzo[e][1,3]oxazin-7-yl)oxy)acetamide (7b)]",35
6,"Cc1c(OCC(=O)N[C@@H](C)C(=O)O)ccc2c(=O)nc(N3CCOCC3)oc12 [(2-((8-Methyl-2-morpholino-4-oxo-4H-benzo[e][1,3]oxazin-7-yl)oxy)acetyl)alanine (11a)]",100
7,"Cc1c(OCC(=O)NCc2ccc(Cl)cc2)ccc2c(=O)nc(N3CCOCC3)oc12 [N-(4-chlorobenzyl)-2-((8-methyl-2-morpholino-4-oxo-4Hbenzo[e][1,3]oxazin-7-yl)oxy)acetamide (9d)]",10
8,"Cc1c(OCC(=O)NCc2ccc(O)cc2)ccc2c(=O)nc(N3CCOCC3)oc12 [N-(4-hydroxybenzyl)-2-((8-methyl-2-morpholino-4-oxo-4Hbenzo[e][1,3]oxazin-7-yl)oxy)acetamide (9f)]",2.5
9,"CCC(C)C(NC(=O)COc1ccc2c(=O)nc(N3CCOCC3)oc2c1C)C(=O)O (stereo not given) [3-Methyl-2-(2-((8-methyl-2-morpholino-4-oxo-4H-benzo[e][1,3]oxazin-7-yl)oxy)acetamido)pentanoic acid (11b)]",80
10,"Cc1c(OCC(=O)Nc2ccc(S(=O)(=O)Nc3ccccn3)cc2)ccc2c(=O)nc(N3CCOCC3)oc12 [2-((8-Methyl-2-morpholino-4-oxo-4H-benzo[e][1,3]oxazin-7-yl)oxy)-N-(4-(N-(pyridin-2-yl)sulfamoyl)phenyl)acetamide (7c)]",0.25
11,"Cc1c(OCC(=O)Nc2ccc(S(=O)(=O)Nc3nccs3)cc2)ccc2c(=O)nc(N3CCOCC3)oc12 [2-((8-Methyl-2-morpholino-4-oxo-4H-benzo[e][1,3]oxazin-7-yl)oxy)-N-(4-(N-(thiazol-2-yl)sulfamoyl)phenyl)acetamide (7d)]",3.5
12,"Cc1c(OCC(=O)N[C@@H](Cc2ccccc2)C(=O)O)ccc2c(=O)nc(N3CCOCC3)oc12 [(2-((8-Methyl-2-morpholino-4-oxo-4H-benzo[e][1,3]oxazin-7yl)oxy)acetyl)phenylalanine (11c)]",35
13,"Cc1ccc(CNC(=O)COc2ccc3c(=O)nc(N4CCOCC4)oc3c2C)cc1 [2-((8-Methyl-2-morpholino-4-oxo-4H-benzo[e][1,3]oxazin-7-yl)oxy)-N-(4-methylbenzyl)acetamide (9c)]",20
14,"Cc1noc(NS(=O)(=O)c2ccc(NC(=O)COc3ccc4c(=O)nc(N5CCOCC5)oc4c3C)cc2)c1C [N-(4-(N-(3,4-dimethylisoxazol-5-yl)sulfamoyl)phenyl)-2-((8-methyl-2-morpholino-4-oxo-4H-benzo[e][1,3]oxazin-7-yl)oxy)acetamide (7f)]",5
15,"Cc1c(OCC(=O)Nc2ccc(S(=O)(=O)NC(=N)N)cc2)ccc2c(=O)nc(N3CCOCC3)oc12 [N-(4-(N-carbamimidoylsulfamoyl)phenyl)-2-((8-methyl-2-morpholino-4-oxo-4H-benzo[e][1,3]oxazin-7-yl)oxy)acetamide (7e)]",25
